Measured values taken from US10647720B2 (Asana Biosciences, LLC, priority 2011, dated 2020).
Blank lines part the entries; values can stand above or below the molecule they belong to.

Columns and labels:
[1] = target: Syk (356-635 amino acids)-catalytic domain (Homo sapiens (Human), UniProt P43405); experiment: Inhibition of enzymatic Syk kinase activity (radiometric); format: biochemical
From the text: The objective of this assay was to examine by radiometric method the ability of compounds to inhibit Syk kinase enzyme. Syk is capable of phosphorylating substrates such as VAV, LAT, SLP-76, which in turn activate MAPK, PLCγ signaling pathways. […] This in vitro assay tests the ability of syk to phosphorylate a substrate peptide in the presence of ATP. By using a radio-labeled form of ATP, it is possible to measure the amount of phosphorylation of the substrate. The enzyme transfers a radio-labeled phosphate group from γ32 P labeled ATP to pG4T. Briefly the enzyme was incubated with substrate, radio-labeled & cold ATP and substrate in buffer with or without compounds. At the end of the reaction, the reaction mixture was transferred on to a Multiscreen filter plate and unreacted γ^32P ATP was washed off. The filter plate was dried and the radioactivity was measured on a scintillation counter to estimate the incorporated radioactivity on the substrate. The percent inhibition of activity of the enzyme was calculated by comparing counts in the presence and absence of compounds. […] Microscint-O® reagent (100 μL, Perkin Elmer) was added to each well, the plate was sealed with Topseal®-A microplates and incubated for 10 minutes at room temperature at very low speed on rocker and the plate was read in the Topcount® NXL instrument.

RBL2H3 cells = experiment: Degranulation assay: β-hexosaminidase release during immune complex mediated degranulation; format: cell-based, Rat
Experimental: The objective of this assay was to examine by Fluorescence method the effect of compounds on β-hexosaminidase release during immune complex mediated degranulation in RBL2H3 cells. Compounds were tested for their ability to inhibit the ability of this immune complex to mediate β-hexosaminidase release, in an enzyme assay with p-nitrophenyl-β-D-glucosaminide as substrate. […] Emission 460 nm). RBL2H3 cells were maintained in MEM complete media containing 10% FBS at 70%-80% confluence in a mammalian cell culture CO2 incubator with 5% CO2 at 37° C. 2×10^5 cells/well were plated in 1 mL of complete media and incubated for 5 hours for cell attachment. Complete media was replaced with 1 mL of serum free MEM media containing 1.2 μg/mL of anti-DNP rat IgE as sensitizing agent and further incubated overnight with 5% CO2 at 37° C. […] Cells were further stimulated with 5 μg/mL of DNP-BSA for 60 minutes. Plates were centrifuged for 5 minutes at 1000 rpm and 25 μL of culture supernatant was transferred from each assay well into a 96 well black coated plate. 25 μL β-NAG substrate was added to this mixture and incubated at room temperature for 30 minutes. The reaction was terminated with 100 μL of stop solution and fluorescence was monitored. (Excitation 355 nm; Emission 460 nm) See, Sanderson, (2010), Cellular Immunology, 262(1): 28-34 and Silverman, (2006) MCB, 26(5):1826-1838, which are incorporated herein by reference. The % release of β-Hexosaminidase for the test compound was calculated using the following formula: RBL2H3 cells were maintained in MEM complete media containing 10% FBS at 70-80% confluence in a mammalian cell culture CO2 incubator with 5% CO2 at 37° C. 5×10^4 cells/well were plated in 200 μL of complete media containing 0.3 μg/mL of anti-DNP rat IgE as sensitizing agent for 24 hours at 37° C. & 5% CO2. The following day, cells were washed twice with PIPES buffer for 10 minutes at 37° C. and replenished with serum free MEM media. […] After incubation with substrate, 150 μL of stop solution was added and fluorescence was monitored. […]

JAK2 = JAK2 (Homo sapiens (Human), UniProt O60674); experiment: Inhibition of enzymatic JAK2 kinase activity (TR-FRET); format: biochemical
From the text: The objective of this assay was to screen compounds in a Time-resolved fluorescence resonance energy transfer (TR-FRET) Enzymatic assay method for their potential to inhibit JAK2 (Janus kinase) activity.
TR-FRET assays are homogeneous proximity assays where Eu-labeled antiphosphotyrosine antibody binds to the phosphorylated substrates labeled with Ulight fluorescence acceptor. Eu can transfer energy to Ulight accepter in the complex and the interaction of two dye-labeled binding partners is detected by the energy transfer between a donor and an acceptor dye, and the subsequent light emission by the acceptor dye. The intensity of the light emission is proportional to the level of Ulight peptide phosphorylation.
Two μL of 10% DMSO in blank, substrate control and positive control wells and 2 μL of test compound in test wells was added. Thirteen μL of assay buffer in blank and substrate control wells and 13 μL of Enzyme buffer mix in positive and test wells was added. The reaction mixture was incubated for 30 minutes at RT on a plate shaker. […] The reaction plate was incubated for 60 minutes at RT on a plate shaker. The reaction was stopped by adding 40 mM EDTA (10 μL) in buffer. Ten μL of antibody was added to all the wells. The plate was read in a Wallac® 1420 Multilabel Counter Victor 3 instrument (Ex: 340 nm Em: 615 & 665 nm) The following calculations were made:
F@ 665 Value-Buffer blank […]

[2] = test system: Collagen Induced Arthritis (CIA) in female Lewis rats; experiment: In vivo chronic study: Collagen Induced Arthritis (CIA); parameters: species or system rat; conditions: 0.5 mg/Kg
Experimental: Female Lewis rats (8 per group, 6-8 weeks old) were immunized on day 1 with type II collagen (Immunization grade Bovine type II; Chondrex; Cat #20021) emulsified with Complete Freund's Adjuvant (Sigma; Cat # F5881) at a final concentration of 1.2 mg/mL). For the initial immunization, the animals were injected at the base of the tail with 300 μg of the cII (0.25 mL/rat). A booster injection of the same type II collagen emulsified with Incomplete Freund's Adjuvant (Sigma, Cat #F5506) (0.25 mL/rat) was given to the animals on day 8 at the base of the tail (100 μg). The final cII concentration in the booster was […]. […]
Edema: Paw volumes are measured by Plethysmometry for the animals before induction of CIA (Basal readings) and on Day 1, 3, 6 and 9 of dosing period. Both hind paw volumes were measured and edema was calculated by subtracting from the basal mean.
Arthritic score: Animals were scored for the symptoms of arthritis every day starting from Day of onset of disease till the end of the study. Both the hind paws were scored and the total scores were averaged and compared with control. […]
The percent inhibition of Edema was calculated with respect to control by the formula: […]
The percent inhibition of Arthritic score was calculated with respect to control by the formula: […]

Sequence of JAK2 (O60674 808-1132): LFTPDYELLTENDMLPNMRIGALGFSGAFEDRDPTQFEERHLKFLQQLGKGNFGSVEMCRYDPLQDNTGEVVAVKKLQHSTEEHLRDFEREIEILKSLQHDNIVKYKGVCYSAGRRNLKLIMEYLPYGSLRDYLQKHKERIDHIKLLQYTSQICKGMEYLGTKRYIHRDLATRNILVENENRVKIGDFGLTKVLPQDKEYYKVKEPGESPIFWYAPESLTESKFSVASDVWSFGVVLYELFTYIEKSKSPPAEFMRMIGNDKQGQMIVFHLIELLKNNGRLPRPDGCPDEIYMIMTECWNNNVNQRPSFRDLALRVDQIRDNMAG

IC50 [1]: < 10 nM | EC50 (RBL2H3 cells; Rattus norvegicus, RBL-2H3, Assay Protocol B (96 well format)): 21 nM | IC50 (JAK2): < 10 nM
SMILES: O=c1[nH]ncc2nc(N3CCCCCC3)nc(Nc3ccc(N4CCN(CCO)CC4)cc3)c12 [Example 190, 2-(azepan-1-yl)-4-((4-(4-(2-hydroxyethyl)piperazin-1-yl)-phenyl)amino)pyrimido[4,5-d]-pyridazin-5(6H)-one]
inhibition at 1 µM (RBL2H3 cells; Rattus norvegicus, RBL-2H3, 1 μM, Assay Protocol B (96 well format)): 83%

SMILES: N=Cc1nc(N2CCCCCC2)nc(Nc2ccc(N3CCCC(CC(=O)O)C3)cc2)c1C(N)=O (stereo not shown) [Example 232]
Degranulation % inhibition at 1 μM (RBL2H3 cells; 1 μM, Assay Protocol B (96 well format)): 0%

SMILES: CN(Cc1cnc2nc(N)nc(N)c2n1)c1ccc(C(=O)N[C@@H](CCC(=O)O)C(=O)O)cc1 [Methotrexate, methotrexate]
Percent inhibition of Edema (Day 9 of dosing) ([2]; Day 9 of dosing): 6% | Percent inhibition of Arthritic score (Day 10 of dosing) ([2]; Day 10 of dosing): 15%
